Laboratory results from the NIST ThermoML archive (doi:10.1021/je049932z).
± gives the expanded uncertainty stated by the source.

Legend:
[1] = 293.15 K
[2] = wn = mass fraction of the nth substance listed; conditions: 293.15 K; for mass density / viscosity: 101.3 kPa, Liquid

CCOCCOCCOCC [diethylene glycol diethyl ether]
surface tension liquid-gas [1]: 29.27 ± 1.6 mN/m
mass density ([1]; 101.3 kPa, Liquid): 907.3 ± 4.2 kg/m3
viscosity ([1]; 101.3 kPa, Liquid): 1.346 ± 0.042 mPa·s

CCOCCOCCOCC [diethylene glycol diethyl ether] + O
surface tension liquid-gas ([2]; w1 = 0.0033): 69.73 ± 2.8 mN/m
surface tension liquid-gas ([2]; w1 = 0.00984): 66.53 ± 2.7 mN/m
surface tension liquid-gas ([2]; w1 = 0.01771): 56.82 ± 2.4 mN/m
surface tension liquid-gas ([2]; w1 = 0.03207): 45.57 ± 2.1 mN/m
surface tension liquid-gas ([2]; w1 = 0.05896): 36.39 ± 1.8 mN/m
surface tension liquid-gas ([2]; w1 = 0.1611): 35.71 ± 1.8 mN/m
surface tension liquid-gas ([2]; w1 = 0.2547): 34.92 ± 1.8 mN/m
surface tension liquid-gas ([2]; w1 = 0.3578): 34.11 ± 1.8 mN/m
surface tension liquid-gas ([2]; w1 = 0.4474): 32.3 ± 1.7 mN/m
surface tension liquid-gas ([2]; w1 = 0.5769): 30.54 ± 1.7 mN/m
surface tension liquid-gas ([2]; w1 = 0.6385): 30.21 ± 1.6 mN/m
surface tension liquid-gas ([2]; w1 = 0.7794): 30.46 ± 1.6 mN/m
surface tension liquid-gas ([2]; w1 = 0.8549): 30.2 ± 1.6 mN/m
surface tension liquid-gas ([2]; w1 = 0.9401): 30.01 ± 1.6 mN/m
surface tension liquid-gas ([2]; w1 = 1): 29.27 ± 1.6 mN/m
mass density ([2]; w1 = 0.05896): 996.7 ± 4.8 kg/m3
viscosity ([2]; w1 = 0.05896): 1.18 ± 0.037 mPa·s
mass density ([2]; w1 = 0.07683): 996.9 ± 4.8 kg/m3
viscosity ([2]; w1 = 0.07683): 1.265 ± 0.039 mPa·s
mass density ([2]; w1 = 0.1038): 997.1 ± 4.8 kg/m3
viscosity ([2]; w1 = 0.1038): 1.451 ± 0.044 mPa·s
mass density ([2]; w1 = 0.1227): 997.2 ± 4.8 kg/m3
viscosity ([2]; w1 = 0.1227): 1.551 ± 0.047 mPa·s
mass density ([2]; w1 = 0.1425): 998.2 ± 4.8 kg/m3
viscosity ([2]; w1 = 0.1425): 1.701 ± 0.051 mPa·s
mass density ([2]; w1 = 0.1611): 998.5 ± 4.8 kg/m3
viscosity ([2]; w1 = 0.1611): 1.839 ± 0.055 mPa·s
mass density ([2]; w1 = 0.1951): 998.6 ± 4.8 kg/m3
viscosity ([2]; w1 = 0.1951): 2.149 ± 0.063 mPa·s
mass density ([2]; w1 = 0.2207): 999.3 ± 4.8 kg/m3
viscosity ([2]; w1 = 0.2207): 2.414 ± 0.071 mPa·s
mass density ([2]; w1 = 0.2547): 999.1 ± 4.8 kg/m3
viscosity ([2]; w1 = 0.2547): 2.707 ± 0.079 mPa·s
mass density ([2]; w1 = 0.2828): 999.8 ± 4.8 kg/m3
viscosity ([2]; w1 = 0.2828): 2.961 ± 0.086 mPa·s
mass density ([2]; w1 = 0.3185): 999.5 ± 4.8 kg/m3
viscosity ([2]; w1 = 0.3185): 3.302 ± 0.095 mPa·s
mass density ([2]; w1 = 0.3578): 999.1 ± 4.8 kg/m3
viscosity ([2]; w1 = 0.3578): 3.637 ± 0.1 mPa·s
mass density ([2]; w1 = 0.3773): 996.6 ± 4.8 kg/m3
viscosity ([2]; w1 = 0.3773): 3.781 ± 0.11 mPa·s
mass density ([2]; w1 = 0.4231): 994.6 ± 4.8 kg/m3
viscosity ([2]; w1 = 0.4231): 4.088 ± 0.12 mPa·s
mass density ([2]; w1 = 0.4474): 993.1 ± 4.8 kg/m3
viscosity ([2]; w1 = 0.4474): 4.218 ± 0.12 mPa·s
mass density ([2]; w1 = 0.5151): 989 ± 4.7 kg/m3
viscosity ([2]; w1 = 0.5151): 4.462 ± 0.13 mPa·s
mass density ([2]; w1 = 0.5769): 981.1 ± 4.7 kg/m3
viscosity ([2]; w1 = 0.5769): 4.452 ± 0.13 mPa·s
mass density ([2]; w1 = 0.6029): 979.1 ± 4.7 kg/m3
viscosity ([2]; w1 = 0.6029): 4.403 ± 0.12 mPa·s
mass density ([2]; w1 = 0.6385): 973.1 ± 4.6 kg/m3
viscosity ([2]; w1 = 0.6385): 4.27 ± 0.12 mPa·s
mass density ([2]; w1 = 0.6814): 966.4 ± 4.6 kg/m3
viscosity ([2]; w1 = 0.6814): 4.033 ± 0.12 mPa·s
mass density ([2]; w1 = 0.7256): 960.1 ± 4.6 kg/m3
viscosity ([2]; w1 = 0.7256): 3.741 ± 0.11 mPa·s
mass density ([2]; w1 = 0.7794): 949.6 ± 4.5 kg/m3
viscosity ([2]; w1 = 0.7794): 3.189 ± 0.092 mPa·s
mass density ([2]; w1 = 0.8549): 940.7 ± 4.4 kg/m3
viscosity ([2]; w1 = 0.8549): 2.599 ± 0.076 mPa·s
mass density ([2]; w1 = 0.9195): 926.2 ± 4.3 kg/m3
viscosity ([2]; w1 = 0.9195): 1.943 ± 0.058 mPa·s
mass density ([2]; w1 = 0.9401): 920.7 ± 4.3 kg/m3
viscosity ([2]; w1 = 0.9401): 1.75 ± 0.05 mPa·s
mass density ([2]; w1 = 0.9769): 912.8 ± 4.3 kg/m3
viscosity ([2]; w1 = 0.9769): 1.467 ± 0.045 mPa·s
mass density ([2]; w1 = 1): 907.3 ± 4.2 kg/m3
viscosity ([2]; w1 = 1): 1.346 ± 0.042 mPa·s

O [water]
surface tension liquid-gas [1]: 72.75 ± 2.8 mN/m
viscosity ([1]; 101.3 kPa, Liquid): 1.002 ± 0.032 mPa·s

O [water] + CCOCCOCCOCC
surface tension liquid-gas ([2]; w2 = 0): 72.75 ± 2.8 mN/m
mass density ([2]; w2 = 0): 997.2 ± 4.8 kg/m3
viscosity ([2]; w2 = 0): 1.002 ± 0.032 mPa·s
